How the values were obtained:
[1] = biological target: T1, Tdp1 (Homo sapiens, UniProt Q9NUW8); assay: Real-time detection of Tdp1 activity (5'-FAM/3'-BHQ1 oligonucleotide biosensor); type: biochemical; conditions: 1.5 nM Tdp1, 50 nM oligonucleotide substrate, 26 °C
T1 construct: made in house; host or cells: Escherichia coli
Source text: We first studied the inhibition potency of our compounds to Tdp1 by using a real-time oligonucleotide biosensor assay that we have previously developed. The assay was based on the ability of Tdp1 to remove the fluorescence quencher from the 3’-end of DNA. The substrate is a 16-mer single-stranded oligonucleotide containing both a 5’-FAM fluorophore and a 3’-BHQ1 quencher.
A fluorophore quencher-coupled DNA-biosensor for real-time measurement of Tdp1 cleavage activity was recently designed in our laboratory. The biosensor is a 16-mer single-stranded oligonucleotide containing both a 5’-FAM fluorophore donor and a quenching 3’-BHQ1 moiety.
Recombinant protein Tdp1 was expressed in EsCherichia coli (pET 16B plasmid containing Tdp1 cDNA provided by Dr. K.W. Caldecott, University of Sussex, United Kingdom) and isolated as described. The reaction mixture in a final volume 200 μL contained Tdp1 reaction buffer (50 mM Tris-HCl, 50 mM NaCl, 7 mM β-mercaptoethanol), 50 nM oligonucleotide substrate, and varied concentrations of potential inhibitor. Purified Tdp1 was added in a final concentration of 1.5 nM.
The reaction mixtures were incubated at a constant temperature of 26 °C in a POLARstar OPTIMA fluorimeter, BMG LABTECH, GmbH, to measure fluorescence intensity every minute (Ex485/Em520 nm). Tdp1 inhibition was calculated by comparing the rate of increase in fluorescence of the biosensor in the presence of the compound to that of DMSO (1.5%) control wells. The measurements were carried out in at least two independent experiments. IC50 values were determined using a six-point concentration response curve. The data were imported into the MARS Data Analysis 2.0 program (BMG LABTECH) and the slope during the linear phase (data from 0 to 7 min) was calculated.

[2] = biological target: T2, recombinant Tdp1 (residues 149–608) (Homo sapiens, UniProt Q9NUW8); assay: Intrinsic tryptophan fluorescence quenching binding assay; conditions: 10 µM Tdp1, 20 mM Tris, 250 mM NaCl, pH 8; triplicate
T2 construct: recombinant Tdp1 (residues 149–608) was obtained from GenScript; host or cells: E. coli BL21(DE3)
Protocol: The binding of the synthesized compounds to recombinant Tdp1 was also tested (Table 1 and Table 2) by using an intrinsic tryptophan fluorescence quenching assay. […] As our compounds are aromatic in nature, there is a possibility that they may bind to both the active site as well as non-specifically to the DNA/peptide binding pockets. Nonetheless, our results confirmed that the compounds were indeed binders of Tdp1, thus complementing our inhibition data.
pET-28a(+) plasmid encoding recombinant Tdp1 (residues 149–608) was obtained from GenScript. E. coli BL21(DE3) was used for recombinant protein production. Protein production was induced with 1 mM IPTG at 28 °C with overnight incubation. Tdp1 was purified using affinity and size exclusion chromatography. Fluorescence was measured using a PerkinElmer EnSpire Multimode Reader. Tdp1 concentration was 10 μM with varying compound concentrations. The buffer was 20 mM Tris and 250 mM NaCl (pH 8). The excitation wavelength was 280 nm and intrinsic fluorescence was measured at 350 nm. Control experiments with Tdp1 or the compound on its own were also conducted. Background fluorescence arising from the compounds was subtracted from the final spectrum. The total volume per well was 30 μL. The dissociation constant (KD) was calculated using Equation (1), which takes non-specific binding into account. y = Bmaxx/(KD + x) + Nsx(1) where y denotes the changes in fluorescence intensity; x denotes the concentration of the compounds; Bmax denotes the maximum changes in fluorescence intensity; and Ns is a scaling factor for non-specific binding. Experiments were conducted in triplicate.

T2 sequence (Q9NUW8 149-608): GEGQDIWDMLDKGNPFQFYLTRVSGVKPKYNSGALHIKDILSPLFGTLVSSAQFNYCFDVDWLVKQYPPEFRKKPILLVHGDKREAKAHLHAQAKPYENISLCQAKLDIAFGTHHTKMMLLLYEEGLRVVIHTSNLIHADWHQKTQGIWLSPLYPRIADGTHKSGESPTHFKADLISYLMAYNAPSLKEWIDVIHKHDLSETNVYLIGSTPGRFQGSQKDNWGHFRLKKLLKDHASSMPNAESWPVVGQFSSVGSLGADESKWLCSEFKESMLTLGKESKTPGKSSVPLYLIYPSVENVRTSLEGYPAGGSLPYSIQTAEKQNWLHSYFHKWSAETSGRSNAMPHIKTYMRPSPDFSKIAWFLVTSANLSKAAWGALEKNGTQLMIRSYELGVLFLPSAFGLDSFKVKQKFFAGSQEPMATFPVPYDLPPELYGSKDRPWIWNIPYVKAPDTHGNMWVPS
T1 sequence (Q9NUW8 whole entry): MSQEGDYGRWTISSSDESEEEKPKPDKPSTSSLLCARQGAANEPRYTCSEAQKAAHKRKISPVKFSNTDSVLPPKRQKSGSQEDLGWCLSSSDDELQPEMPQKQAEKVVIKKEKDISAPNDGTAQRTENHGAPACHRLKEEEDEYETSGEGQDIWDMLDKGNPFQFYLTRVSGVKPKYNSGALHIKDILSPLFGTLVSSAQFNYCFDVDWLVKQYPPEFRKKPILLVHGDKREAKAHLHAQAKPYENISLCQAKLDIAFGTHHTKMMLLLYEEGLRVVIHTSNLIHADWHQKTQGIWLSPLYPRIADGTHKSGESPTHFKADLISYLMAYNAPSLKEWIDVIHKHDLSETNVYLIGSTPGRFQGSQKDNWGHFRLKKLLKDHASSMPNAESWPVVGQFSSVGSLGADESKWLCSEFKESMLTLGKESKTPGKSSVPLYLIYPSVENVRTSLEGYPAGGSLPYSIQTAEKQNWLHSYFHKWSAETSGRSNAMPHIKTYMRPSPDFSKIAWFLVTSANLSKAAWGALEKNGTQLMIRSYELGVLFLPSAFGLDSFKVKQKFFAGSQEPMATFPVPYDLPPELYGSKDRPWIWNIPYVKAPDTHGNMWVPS

| Molecule | IC50 [1] [nM] | Kd [2] [nM] |
| --- | --- | --- |
| CC(=O)C1=C(O)C=C2Oc3c(-c4csc(N/N=C/c5ccncc5)n4)c(O)c(C)c(O)c3[C@@]2(C)C1=O [(+)-16a, 4-[(1E)-(2-{4-[(1R)-12-Acetyl-3,5,11-trihydroxy-1,4-dimethyl-13-oxo-8-oxatricyclo[7.4.0.0^2,7]trideca-2(7),3,5,9,11-pentaen-6-yl]-1,3-thiazol-2-yl}hydrazin-1-ylidene)methyl]pyridin-1-ium bromide] | 160 ± 16 | 139000 ± 32000 |
| CC(=O)C1=C(O)C=C2Oc3c(-c4csc(N/N=C/c5ccccn5)n4)c(O)c(C)c(O)c3[C@@]2(C)C1=O [(+)-16b, 2-[(1E)-(2-{4-[(1R)-12-Acetyl-3,5,11-trihydroxy-1,4-dimethyl-13-oxo-8-oxatricyclo[7.4.0.0^2,7]trideca-2(7),3,5,9,11-pentaen-6-yl]-1,3-thiazol-2-yl}hydrazin-1-ylidene)methyl]pyridin-1-ium bromide] | 492 ± 88 | 77000 ± 24000 |
| CC(=O)C1=C(O)C=C2Oc3c(-c4csc(N/N=C/c5ccc([N+](=O)[O-])s5)n4)c(O)c(C)c(O)c3[C@@]2(C)C1=O [(+)-16d, (2R)-4-Acetyl-5,11,13-trihydroxy-2,12-dimethyl-10-{2-[(E)-2-[(5-nitrothiophen-2-yl)methylidene]hydrazin-1-yl]-1,3-thiazol-4-yl}-8-oxatricyclo[7.4.0.0^2,7]trideca-1(9),4,6,10,12-pentaen-3-one] | 70 ± 4 | 597000 ± 98000 |
| CC(=O)C1=C(O)C=C2Oc3c(-c4csc(N/N=C/c5ccco5)n4)c(O)c(C)c(O)c3[C@@]2(C)C1=O [(+)-16k, (2R)-4-Acetyl-5,11,13-trihydroxy-2,12-dimethyl-10-{2-[(E)-2-[(furan-2-yl)methylidene] hydrazin-1-yl]-1,3-thiazol-4-yl}-8-oxatricyclo[7.4.0.0^2,7]trideca-1(9),4,6,10,12-pentaen-3-one] | 120 ± 15 | 67000 ± 9000 |
| CC(=O)C1=C(O)C=C2Oc3c(-c4csc(N/N=C/c5cccn5C)n4)c(O)c(C)c(O)c3[C@@]2(C)C1=O [(+)-16n, (2R)-4-Acetyl-5,11,13-trihydroxy-2,12-dimethyl-10-{2-[(E)-2-[(1-methyl-pyrrol-2-yl)methylidene]hydrazin-1-yl]-1,3-thiazol-4-yl}-8-oxatricyclo[7.4.0.0^2,7]trideca-1(9),4,6,10,12-pentaen-3-one] | 151 ± 14 | 719000 ± 17000 |
| CC(=O)C1=C(O)C=C2Oc3c(-c4csc(N/N=C/c5cnc[nH]5)n4)c(O)c(C)c(O)c3[C@@]2(C)C1=O [(+)-16o, 5-[(1E)-(2-{4-[(1R)-12-Acetyl-3,5,11-trihydroxy-1,4-dimethyl-13-oxo-8-oxatricyclo[7.4.0.0^2,7]trideca-2(7),3,5,9,11-pentaen-6-yl]-1,3-thiazol-2-yl}hydrazin-1-ylidene)methyl]-1H-imidazol-1-ium bromide] | 1690 ± 890 | 38000 ± 2000 |
| CC(=O)C1=C(O)C=C2Oc3c(-c4csc(N/N=C/c5c[nH]c6ccccc56)n4)c(O)c(C)c(O)c3[C@@]2(C)C1=O [(+)-16p, (2R)-4-Acetyl-5,11,13-trihydroxy-2,12-dimethyl-10-{2-[(E)-2-[(1H-indole-3-yl)methylidene] hydrazin-1-yl]-1,3-thiazol-4-yl}-8-oxatricyclo[7.4.0.0^2,7]trideca-1(9),4,6,10,12-pentaen-3-one] | 138 ± 3 | 268000 ± 11000 |
| COc1ccc(/C=N/Nc2nc(-c3c(O)c(C)c(O)c4c3OC3=CC(O)=C(C(C)=O)C(=O)[C@@]34C)cs2)cc1COc1ccc(F)c(Cl)c1 [(+)-17d, (2R)-4-Acetyl-10-{2-[(E)-2-({3-[(3-chloro-4-fluorophenoxy)methyl]-4-methoxyphenyl}methylidene)hydrazin-1-yl]-1,3-thiazol-4-yl}-5,11,13-trihydroxy-2,12-dimethyl-8-oxatricyclo[7.4.0.0^2,7]trideca-1(9),4,6,10,12-pentaen-3-one] | 77 ± 3 | 130000 ± 29000 |
| COc1ccc(/C=N/Nc2nc(-c3c(O)c(C)c(O)c4c3OC3=CC(O)=C(C(C)=O)C(=O)[C@@]34C)cs2)cc1CSc1cc(C)ccc1C(C)(C)C [(+)-17g, (2R)-4-Acetyl-10-{2-[(E)-2-[(3-{[(2-tert-butyl-5-methylphenyl)sulfanyl]methyl}-4-methoxyphenyl)methylidene]hydrazin-1-yl]-1,3-thiazol-4-yl}-5,11,13-trihydroxy-2,12-dimethyl-8-oxatricyclo[7.4.0.0^2,7]trideca-1(9),4,6,10,12-pentaen-3-one] | 122 ± 25 | 223000 ± 42000 |
| COc1ccc(/C=N/Nc2nc(-c3c(O)c(C)c(O)c4c3OC3=CC(O)=C(C(C)=O)C(=O)[C@]34C)cs2)cc1CN1CCN(c2ccccc2OC)CC1 [(−)-17j, (2S)-4-Acetyl-10-{2-[(E)-2-[(3-{[4-(2-methoxyphenyl)piperazin-1-yl]methyl}-4-methoxyphenyl)methylidene]hydrazin-1-yl]-1,3-thiazol-4-yl}-5,11,13-trihydroxy-2,12-dimethyl-8-oxatricyclo[7.4.0.0^2,7]trideca-1(9),4,6,10,12-pentaen-3-one] | 71 ± 15 |  |

Stronger by IC50 [1], values ahead:

| IC50 [1] [nM] | Kd [2] [nM] | Molecule |
| --- | --- | --- |
| 55 ± 8 | 113000 ± 52000 | CC(=O)C1=C(O)C=C2Oc3c(-c4csc(N/N=C/c5ccc(-c6cccc(Cl)c6)o5)n4)c(O)c(C)c(O)c3[C@@]2(C)C1=O [(+)-16r, (2R)-4-Acetyl-10-{2-[(E)-2-{[5-(3-chlorophenyl)furan-2-yl]methylidene}hydrazin-1-yl]-1,3-thiazol-4-yl}-5,11,13-trihydroxy-2,12-dimethyl-8-oxatricyclo[7.4.0.0^2,7]trideca-1(9),4,6,10,12-pentaen-3-one] |
| 26 ± 8 | 212000 ± 25000 | COc1ccc(/C=N/Nc2nc(-c3c(O)c(C)c(O)c4c3OC3=CC(O)=C(C(C)=O)C(=O)[C@@]34C)cs2)cc1COc1ccc(F)cc1 [(+)-17a, (2R)-4-Acetyl-10-{2-[(E)-2-({3-[(4-fluorophenoxy)methyl]-4-methoxyphenyl}methylidene)hydrazin-1-yl]-1,3-thiazol-4-yl}-5,11,13-trihydroxy-2,12-dimethyl-8-oxatricyclo[7.4.0.0^2,7]trideca-1(9),4,6,10,12-pentaen-3-one] |
| 41 ± 7 | 204000 ± 23000 | COc1ccc(/C=N/Nc2nc(-c3c(O)c(C)c(O)c4c3OC3=CC(O)=C(C(C)=O)C(=O)[C@@]34C)cs2)cc1COc1ccccc1F [(+)-17c, (2R)-4-Acetyl-10-{2-[(E)-2-({3-[(2-fluorophenoxy)methyl]-4-methoxyphenyl}methylidene)hydrazin-1-yl]-1,3-thiazol-4-yl}-5,11,13-trihydroxy-2,12-dimethyl-8-oxatricyclo[7.4.0.0^2,7]trideca-1(9),4,6,10,12-pentaen-3-one] |
| 59 ± 5 |  | COc1ccc(/C=N/Nc2nc(-c3c(O)c(C)c(O)c4c3OC3=CC(O)=C(C(C)=O)C(=O)[C@]34C)cs2)cc1CN1CCN(c2ccc(F)cc2)CC1 [(−)-17i, (2S)-4-Acetyl-10-{2-[(E)-2-[(3-{[4-(4-fluorophenyl)piperazin-1-yl]methyl}-4-methoxyphenyl)methylidene]hydrazin-1-yl]-1,3-thiazol-4-yl}-5,11,13-trihydroxy-2,12-dimethyl-8-oxatricyclo[7.4.0.0^2,7]trideca-1(9),4,6,10,12-pentaen-3-one] |
| 21 ± 6 |  | (2R)-4-Acetyl-5,11,13-trihydroxy-2,12-dimethyl-10-{2-[(E)-2-[(1H-2-methyl-indole-3-yl) methylidene]hydrazin-1-yl]-1,3-thiazol-4-yl}-8-oxatricyclo[7.4.0.0^2,7]trideca-1(9),4,6,10,12-pentaen-3-one [(+)-16q] |

From paper PMC6832265 (Molecules, 2019)
